Source: patent US20240376097A1, “BCL-2 Inhibitor” (BeiGene Ltd., priority 2020, published 2024)
Read-outs that look alike come from different tables or passages of the source.

How the values were obtained:
[1] = Metabolic Stability Study, liver microsome incubation (human); assay type: in vitro ADME; settings: human liver microsomes 0.5 mg/mL, 1 μM compound, NADPH; for half-life at 1 μM: NA^# = very stable, beyond the detection limits, read-out: T1/2 (min) Human; for microsomal CLint at 1 μM: read-out: CLint (μL × min^−1 × mg^−1) Human
Method: Biological Example: Metabolic Stability Study
The metabolic stability of some compounds was evaluated by using the liver microsome incubation system in vitro. Briefly, the test compounds at 1 μM, were incubated with 0.5 mg/mL liver microsomes from different species (human, dog, rat and mouse) with an NADPH regenerating system at 37° C. Samples were quenched at three time points (0, 30, 60 min) with organic solvent containing internal standards, and the supernatant was analyzed for parent loss via LC-MS/MS. Midazolam was used as the positive control to validate the incubation system.
where Cprotein is the microsomal protein concentration in the incubation system.
The value of CLint and T1/2 of Example F132b in WO2019210818 and representative compounds of the disclosure were determined, and the results are shown in Table 5.

[2] = test system: BCL-2 G101V knock-in cell line H96 (derive from RS4;11); assay: Bcl 2-G101V Knock-In RS4;11 Cell Proliferation Assay; assay type: cell-based; settings: Homo sapiens, RS4-11, 48 h, RS4;11 Bcl-2 G101V knock-in clone H96, 48 hrs, CellTiter-GLO, read-out: Cellular proliferation assay (IC50, nM) RS4
How it was run: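 CellTiter-Glo luminescence after 48 h, 37 °C compound treatment (10 concentrations, maximum 1 μM or 10 μM) gave mean IC50 values. Cells were 50,000 per well of H96, a BCL2-G101V knock-in single clone derived from RS4;11 by Cas9 editing.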

[3] = molecular target: Recombinant human Bcl-2 protein (Homo sapiens (Human), UniProt P10415); assay: Bcl-2 TR-FRET Assay; assay type: binding
How it was run: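 TR-FRET read (337 nm excitation, 520/490 nm emission) after 1 h with 0.5 nM FITC-labeled Bak peptide and Tb-cryptate anti-6His antibody. Bcl-2 at 0.05 nM had been pre-incubated 0.5 h with compound. IC50 fitted by four-parameter logistic equation.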

[4] = test system: recombinant human Bcl-2-G101V protein; assay: Bcl-2-G101V TR-FRET Assay; assay type: binding; settings: for Ratio of Bcl-2 G101V/WT: ratio of biochemical IC50 Bcl-2 G101V / Bcl-2 WT; for ratio of IC50 of Bcl-2 G101V/Bcl-2 wt, compared with Example F132b in WO2019210828 and ABT-199 (venetoclax): comparison in words
How it was run: (§1)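 Compounds were titrated at increasing concentrations against the Bcl-2-G101V–ligand interaction. TR-FRET signals were then read (ex 337 nm; em 490/520 nm). Percent inhibition was derived from the 490-to-520 nm ratio, and IC50 from a four-parameter logistic equation.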

[5] = molecular target: recombinant human Bcl-2-G101V protein (Homo sapiens (Human), UniProt P10415, G101V); assay: Bcl-2-G101V TR-FRET Assay; assay type: binding; settings: Bcl-2 G101V mutant, TR-FRET; read-out: Biochemical assay (IC50, nM) Bcl-2 G101V
How it was run: as §1

[6] = Bcl-2 wild type, TR-FRET, read-out: Biochemical assay (IC50, nM) Bcl-2 WT
[7] = wild type Bcl-2, unit inferred, read-out: Bcl-2 WT

Compound | half-life at 1 μM [1] [min] | microsomal CLint at 1 μM [1] [µL/min/mg] | IC50 [2] [nM] | IC50 [3, 6] [nM] | IC50 [3, 7] [nM] | Ratio of Bcl-2 G101V/WT [4] | IC50 [5] [nM] | ratio of IC50 of Bcl-2 G101V/Bcl-2 wt, compared with Example F132b in WO2019210828 and ABT-199 (venetoclax) [4]
CC(C)c1ccccc1C1CN(Cc2ccc(F)cc2)CCN1C1CC2(CCN(c3ccc(C(=O)NS(=O)(=O)c4ccc(NC[C@H]5CC[C@](C)(O)CC5)c([N+](=O)[O-])c4)c(Oc4cnc5[nH]ccc5c4)c3)CC2)C1 (stereo partly drawn) [Example 28, 2-((1H-pyrrolo[2,3-b]pyridin-5-yl)oxy)-4-(2-(4-(4-fluorobenzyl)-2-(2-isopropylphenyl)piperazin-1-yl)-7-azaspiro[3.5]nonan-7-yl)-N-((4-((((1r,4r)-4-hydroxy-4-methylcyclohexyl)methyl)amino)-3-nitrophenyl)sulfonyl)benzamide] | 135 | 10.3 | 2.69 | 0.23 | 0.23 | 3.6 | 0.82 | 
CC(C)c1ccccc1C1CN(Cc2ccc(F)c(F)c2)CCN1C1CC2(CCN(c3ccc(C(=O)NS(=O)(=O)c4ccc(NC[C@H]5CC[C@](C)(O)CC5)c([N+](=O)[O-])c4)c(Oc4cnc5[nH]ccc5c4)c3)CC2)C1 (stereo partly drawn) [Example 52, 2-((1H-pyrrolo[2,3-b]pyridin-5-yl)oxy)-4-(2-(4-(3,4-difluorobenzyl)-2-(2-isopropylphenyl)piperazin-1-yl)-7-azaspiro[3.5]nonan-7-yl)-N-((4-((((1r,4r)-4-hydroxy-4-methylcyclohexyl)methyl)amino)-3-nitrophenyl)sulfonyl)benzamide] | 145 | 9.5 | 2.7 | 0.24 | 0.24 | 3.0 | 0.73 | 
CC(C)c1ccccc1C1CN(Cc2ccccc2F)CCN1C1CC2(CCN(c3ccc(C(=O)NS(=O)(=O)c4ccc(NC[C@H]5CC[C@](C)(O)CC5)c([N+](=O)[O-])c4)c(Oc4cnc5[nH]ccc5c4)c3)CC2)C1 (stereo partly drawn) [Example 46, 2-((1H-pyrrolo[2,3-b]pyridin-5-yl)oxy)-4-(2-(4-(2-fluorobenzyl)-2-(2-isopropylphenyl)piperazin-1-yl)-7-azaspiro[3.5]nonan-7-yl)-N-((4-((((1r,4r)-4-hydroxy-4-methylcyclohexyl)methyl)amino)-3-nitrophenyl)sulfonyl)benzamide] | 153 | 9.1 | 10.2 | 0.34 | 0.34 | 7.9 | 2.7 | 
COc1cc(CN2CCN(C3CC4(C3)CN(c3ccc(C(=O)NS(=O)(=O)c5ccc(NC[C@H]6CC[C@](C)(O)CC6)c([N+](=O)[O-])c5)c(Oc5cnc6[nH]cc(F)c6c5)c3)C4)[C@H](c3ccccc3C(C)C)C2)cc2cc(C)oc12 [Example 338, 2-((3-fluoro-1H-pyrrolo[2,3-b]pyridin-5-yl)oxy)-N-((4-((((1r,4r)-4-hydroxy-4-methylcyclohexyl)methyl)amino)-3-nitrophenyl)sulfonyl)-4-(6-((R)-2-(2-isopropylphenyl)-4-((7-methoxy-2-methylbenzofuran-5-yl)methyl)piperazin-1-yl)-2-azaspiro[3.3]heptan-2-yl)benzamide] | 659 | 2.1 | 0.15 | 0.59 | 0.59 | 2.3 | 1.4 | much lower
COc1ccc(CN2CCN(C3CC4(C3)CN(c3ccc(C(=O)NS(=O)(=O)c5ccc(NC[C@H]6CC[C@](C)(O)CC6)c([N+](=O)[O-])c5)c(Oc5cnc6[nH]ccc6c5)c3)C4)[C@H](c3ccccc3C(C)C)C2)cc1 [Example 147, 2-((1H-pyrrolo[2,3-b]pyridin-5-yl)oxy)-N-((4-((((1r,4r)-4-hydroxy-4-methylcyclohexyl)methyl)amino)-3-nitrophenyl)sulfonyl)-4-(6-((R)-2-(2-isopropylphenyl)-4-(4-methoxybenzyl)piperazin-1-yl)-2-azaspiro[3.3]heptan-2-yl) benzamide] |  | < 1 | 0.588 | 0.054 | 0.054 | 3.1 | 0.17 | 
CC(C)c1ccccc1C1CN(Cc2cc(F)cc(F)c2)CCN1C1CC2(CCN(c3ccc(C(=O)NS(=O)(=O)c4ccc(NC[C@H]5CC[C@](C)(O)CC5)c([N+](=O)[O-])c4)c(Oc4cnc5[nH]ccc5c4)c3)CC2)C1 (stereo partly drawn) [Example 51, 2-((1H-pyrrolo[2,3-b]pyridin-5-yl)oxy)-4-(2-(4-(3,5-difluorobenzyl)-2-(2-isopropylphenyl)piperazin-1-yl)-7-azaspiro[3.5]nonan-7-yl)-N-((4-((((1r,4r)-4-hydroxy-4-methylcyclohexyl)methyl)amino)-3-nitrophenyl)sulfonyl)benzamide] | 234 | 5.9 | 4 | 0.42 | 0.42 | 3.8 | 1.6 | 
COc1ccc(CN2CCN(C3CC4(C3)CN(c3ccc(C(=O)NS(=O)(=O)c5ccc(NC[C@H]6CC[C@](C)(O)CC6)c([N+](=O)[O-])c5)c(Oc5cnc6[nH]cc(F)c6c5)c3)C4)[C@H](c3ccccc3C(C)C)C2)cc1OC [Example 141a, 4-(6-((R)-4-(3,4-dimethoxybenzyl)-2-(2-isopropylphenyl)piperazin-1-yl)-2-azaspiro[3.3]heptan-2-yl)-2-((3-fluoro-1H-pyrrolo[2,3-b]pyridin-5-yl)oxy)-N-((4-((((1r,4r)-4-hydroxy-4-methylcyclohexyl)methyl)amino)-3-nitrophenyl)sulfonyl)benzamide] | 343 | 4 | 0.268 | 0.054 | 0.054 | 2.5 | 0.13 | much lower
COc1ccc(CN2CCN(C3CC4(CCN(c5ccc(C(=O)NS(=O)(=O)c6ccc(NC[C@H]7CC[C@](C)(O)CC7)c([N+](=O)[O-])c6)c(Oc6cnc7[nH]ccc7c6)c5)CC4)C3)C(c3ccccc3C(C)C)C2)c(OC)c1 (stereo partly drawn) [Example 48] | 256 | 5.4 | 1.9 | 0.072 | 0.072 | 4.6 | 0.33 | 
[2H]C([2H])([2H])Oc1ccc(CN2CCN(C3CC4(CCN(c5ccc(C(=O)NS(=O)(=O)c6ccc(NC[C@H]7CC[C@](C)(O)CC7)c([N+](=O)[O-])c6)c(Oc6cnc7[nH]cc(F)c7c6)c5)CC4)C3)[C@H](c3ccccc3C(C)C)C2)cc1OC([2H])([2H])[2H] [Example 198, 4-(2-((R)-4-(3,4-bis(methoxy-d3)benzyl)-2-(2-isopropylphenyl)piperazin-1-yl)-7-azaspiro[3.5]nonan-7-yl)-2-((3-fluoro-1H-pyrrolo[2,3-b]pyridin-5-yl)oxy)-N-((4-((((1r,4r)-4-hydroxy-4-methylcyclohexyl)methyl)amino)-3-nitrophenyl)sulfonyl)benzamide] | 247 | 5.6 | 0.27 | 0.072 | 0.072 | 2.4 | 0.17 | 
COc1cc(CN2CCN(C3CC4(CCN(c5ccc(C(=O)NS(=O)(=O)c6ccc(NC[C@H]7CC[C@](C)(O)CC7)c([N+](=O)[O-])c6)c(Oc6cnc7[nH]ccc7c6)c5)CC4)C3)[C@H](c3ccccc3C(C)C)C2)ccc1C1CC1 [Example 257] | 372 | 3.7 | 0.53 | 0.4 |  | 2.5 | 0.99 | 
CC(C)c1ccccc1[C@@H]1CN(Cc2ccc(F)c(F)c2)CCN1C1CC2(CCN(c3ccc(C(=O)NS(=O)(=O)c4ccc(NC[C@H]5CC[C@](C)(O)CC5)c([N+](=O)[O-])c4)c(Oc4cnc5[nH]ccc5c4)c3)CC2)C1 (single isomer, unassigned) [Example 52a, 2-((1H-pyrrolo[2,3-b]pyridin-5-yl)oxy)-4-(2-((R or S)-4-(3,4-difluorobenzyl)-2-(2-isopropylphenyl)piperazin-1-yl)-7-azaspiro[3.5]nonan-7-yl)-N-((4-((((1r,4r)-4-hydroxy-4-methylcyclohexyl)methyl)amino)-3-nitrophenyl)sulfonyl)benzamide] |  |  | 1.67 | 0.16 | 0.16 | 4.2 | 0.68 | 
